Values quoted from earlier work, collected in US11607129B2, “Combined positron emission tomography (PET)-electron paramagnetic resonance (EPR) imaging device” (West Virginia University, priority 2018, dated 2023).

Test system: mouse
Details: as confirmed by recent cytotoxicity studies; probe hydrophilic, remains extracellular

For “phosphonated triarylmethyl radicals [pTAM]”, the “toxicity to the mouse” value is given as “minimal toxicity”.
